# Active and inactive are the calls of the source. The calls are words filed in the database; no cut-off is given here.
# Legend:
# [1] = target: Bromodomain-containing protein 3 (Homo sapiens, UniProt Q15059); experiment: Binding affinity to His6-tagged human BRD3 bromodomain-2 (306 to 416 residues) expressed in Escherichia coli BL21 (DE3) assessed as dissociation constant by ITC analysis
# CWR22R [2] = experiment: Antitumor activity against human 22Rv1 cells xenografted in NOD SCID mouse assessed as tumor growth inhibition at 40 mg/kg, po administered 5 times per week via oral gavage for 14 days and measured every other day relative to control; type: functional; settings: 22Rv1, 336 h, time 14 day, read-out: TGI
# LNCaP [3] = experiment: Antiproliferative activity against human LNCaP cells assessed as cell growth inhibition by Celltiter-Glo assay; type: functional, cell-based
# [4] = AUC (0 to infinity) in Sprague-Dawley rat at 5 mg/kg, iv administered as single dose measured up to 24 hrs; type: ADME, organism-based; design: time < 24 hrs, dose 5 mg/kg, route iv; settings: in vivo, 24 h
# LNCaP C4-2B [5] = experiment: Suppression of Androgen receptor target-gene expression in human LNCaP C4-2B cells at 5 uM incubated for 48 hrs by SYBR green dye-based qRT-PCR analysis; type: functional, cell-based
# [6] = target: T1, Bromodomain-containing protein 9 (Homo sapiens) (UniProt Q9H8M2); settings: dose 200.0 µM, time 30.0 min
# T1 sequence (whole entry): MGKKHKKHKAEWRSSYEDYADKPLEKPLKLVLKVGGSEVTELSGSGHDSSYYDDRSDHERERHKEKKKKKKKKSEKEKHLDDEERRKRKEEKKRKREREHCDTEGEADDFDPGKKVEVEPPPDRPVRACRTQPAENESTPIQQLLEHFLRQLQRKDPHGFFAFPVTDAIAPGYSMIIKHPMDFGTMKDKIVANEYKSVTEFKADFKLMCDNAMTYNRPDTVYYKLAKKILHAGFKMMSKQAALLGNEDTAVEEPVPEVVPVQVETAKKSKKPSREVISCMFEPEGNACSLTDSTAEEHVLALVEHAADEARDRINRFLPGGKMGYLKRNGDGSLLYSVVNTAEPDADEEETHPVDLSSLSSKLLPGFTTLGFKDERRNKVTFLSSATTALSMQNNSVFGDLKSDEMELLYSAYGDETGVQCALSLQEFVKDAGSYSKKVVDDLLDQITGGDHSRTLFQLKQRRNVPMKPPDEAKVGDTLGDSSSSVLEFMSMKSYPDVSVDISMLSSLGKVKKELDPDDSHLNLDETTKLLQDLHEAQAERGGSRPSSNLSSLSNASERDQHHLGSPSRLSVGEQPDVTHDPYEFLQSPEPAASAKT
# [7] = target: SWI/SNF-related matrix-associated actin-dependent regulator of chromatin subfamily A member 2 (Homo sapiens) (UniProt P51531); settings: dose 200.0 µM, time 30.0 min
# CWR22R [8] = experiment: Suppression of Androgen receptor target-gene expression in human 22Rv1 cells at 5 uM incubated for 48 hrs by SYBR green dye-based qRT-PCR analysis; type: functional, cell-based
# [9] = Oral bioavailability in Sprague-Dawley rat at 25 mg/kg measured up to 24 hrs; type: ADME, organism-based; settings: in vivo
# [10] = target: Bromodomain adjacent to zinc finger domain protein 2B (Homo sapiens) (UniProt Q9UIF8); settings: dose 200.0 µM, time 30.0 min
# Sequence of Bromodomain adjacent to zinc finger domain protein 2B (Homo sapiens) (Q9UIF8 whole entry, the tested form may be a part): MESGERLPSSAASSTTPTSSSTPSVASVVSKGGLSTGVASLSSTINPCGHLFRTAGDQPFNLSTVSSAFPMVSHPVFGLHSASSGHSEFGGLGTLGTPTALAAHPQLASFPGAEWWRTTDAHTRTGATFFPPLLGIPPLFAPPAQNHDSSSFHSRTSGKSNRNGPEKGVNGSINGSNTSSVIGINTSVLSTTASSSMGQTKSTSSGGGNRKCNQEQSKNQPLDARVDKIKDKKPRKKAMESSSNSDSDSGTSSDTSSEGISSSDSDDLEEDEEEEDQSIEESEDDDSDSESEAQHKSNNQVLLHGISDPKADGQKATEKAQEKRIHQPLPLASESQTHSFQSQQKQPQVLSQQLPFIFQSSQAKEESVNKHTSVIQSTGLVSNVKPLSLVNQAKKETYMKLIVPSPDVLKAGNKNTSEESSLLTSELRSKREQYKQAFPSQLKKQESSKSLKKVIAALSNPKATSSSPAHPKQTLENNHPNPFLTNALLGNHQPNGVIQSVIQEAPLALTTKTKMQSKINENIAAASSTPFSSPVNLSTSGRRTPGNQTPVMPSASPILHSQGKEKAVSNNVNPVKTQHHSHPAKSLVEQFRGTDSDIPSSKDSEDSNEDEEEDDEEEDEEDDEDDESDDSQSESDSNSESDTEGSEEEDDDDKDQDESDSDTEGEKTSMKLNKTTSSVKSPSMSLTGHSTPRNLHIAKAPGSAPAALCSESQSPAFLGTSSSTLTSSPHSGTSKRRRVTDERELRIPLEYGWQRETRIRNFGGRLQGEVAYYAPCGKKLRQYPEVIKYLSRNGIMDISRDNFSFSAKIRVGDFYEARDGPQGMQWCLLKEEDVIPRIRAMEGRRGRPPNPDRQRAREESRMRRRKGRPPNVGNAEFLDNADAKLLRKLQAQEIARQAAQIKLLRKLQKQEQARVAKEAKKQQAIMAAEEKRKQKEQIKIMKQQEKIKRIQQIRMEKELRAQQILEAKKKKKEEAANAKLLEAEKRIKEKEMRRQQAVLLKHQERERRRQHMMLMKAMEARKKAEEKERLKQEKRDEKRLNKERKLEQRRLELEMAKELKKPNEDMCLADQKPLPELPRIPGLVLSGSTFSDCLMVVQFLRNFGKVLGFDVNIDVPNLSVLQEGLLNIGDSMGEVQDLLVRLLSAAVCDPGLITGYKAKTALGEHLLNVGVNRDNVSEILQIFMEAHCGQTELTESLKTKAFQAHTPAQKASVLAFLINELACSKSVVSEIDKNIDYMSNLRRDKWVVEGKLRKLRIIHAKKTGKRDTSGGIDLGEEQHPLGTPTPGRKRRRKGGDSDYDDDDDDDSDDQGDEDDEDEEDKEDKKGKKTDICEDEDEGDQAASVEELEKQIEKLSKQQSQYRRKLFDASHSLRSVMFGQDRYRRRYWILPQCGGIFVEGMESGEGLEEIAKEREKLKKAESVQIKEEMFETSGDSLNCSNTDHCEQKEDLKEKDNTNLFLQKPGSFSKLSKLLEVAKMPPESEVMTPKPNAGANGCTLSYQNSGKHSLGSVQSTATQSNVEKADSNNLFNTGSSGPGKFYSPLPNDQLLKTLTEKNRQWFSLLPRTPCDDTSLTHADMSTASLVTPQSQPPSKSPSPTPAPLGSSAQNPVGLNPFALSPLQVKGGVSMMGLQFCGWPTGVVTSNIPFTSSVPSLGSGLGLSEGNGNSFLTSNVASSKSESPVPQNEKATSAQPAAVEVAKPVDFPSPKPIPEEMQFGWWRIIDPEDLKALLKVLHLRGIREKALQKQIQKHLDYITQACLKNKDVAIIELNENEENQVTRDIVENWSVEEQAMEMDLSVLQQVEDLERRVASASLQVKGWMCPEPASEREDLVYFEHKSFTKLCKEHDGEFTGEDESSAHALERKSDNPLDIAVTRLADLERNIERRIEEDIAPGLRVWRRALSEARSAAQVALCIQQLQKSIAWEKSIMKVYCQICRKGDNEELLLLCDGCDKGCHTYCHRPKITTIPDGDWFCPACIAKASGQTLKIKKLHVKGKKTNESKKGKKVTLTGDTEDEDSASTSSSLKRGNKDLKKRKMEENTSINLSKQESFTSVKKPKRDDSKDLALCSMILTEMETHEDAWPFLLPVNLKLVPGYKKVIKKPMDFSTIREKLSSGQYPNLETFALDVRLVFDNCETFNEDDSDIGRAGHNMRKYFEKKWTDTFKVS
# CREB-binding protein = CREB-binding protein (Homo sapiens, UniProt Q92793); experiment: Inhibition of His6-tagged human CBP bromodomain (1081 to 1197 residues) expressed in Escherichia coli BL21 (DE3) incubated for 30 mins by HTRF assay
# Sequence of CREB-binding protein (Q92793 whole entry, the tested form may be a part): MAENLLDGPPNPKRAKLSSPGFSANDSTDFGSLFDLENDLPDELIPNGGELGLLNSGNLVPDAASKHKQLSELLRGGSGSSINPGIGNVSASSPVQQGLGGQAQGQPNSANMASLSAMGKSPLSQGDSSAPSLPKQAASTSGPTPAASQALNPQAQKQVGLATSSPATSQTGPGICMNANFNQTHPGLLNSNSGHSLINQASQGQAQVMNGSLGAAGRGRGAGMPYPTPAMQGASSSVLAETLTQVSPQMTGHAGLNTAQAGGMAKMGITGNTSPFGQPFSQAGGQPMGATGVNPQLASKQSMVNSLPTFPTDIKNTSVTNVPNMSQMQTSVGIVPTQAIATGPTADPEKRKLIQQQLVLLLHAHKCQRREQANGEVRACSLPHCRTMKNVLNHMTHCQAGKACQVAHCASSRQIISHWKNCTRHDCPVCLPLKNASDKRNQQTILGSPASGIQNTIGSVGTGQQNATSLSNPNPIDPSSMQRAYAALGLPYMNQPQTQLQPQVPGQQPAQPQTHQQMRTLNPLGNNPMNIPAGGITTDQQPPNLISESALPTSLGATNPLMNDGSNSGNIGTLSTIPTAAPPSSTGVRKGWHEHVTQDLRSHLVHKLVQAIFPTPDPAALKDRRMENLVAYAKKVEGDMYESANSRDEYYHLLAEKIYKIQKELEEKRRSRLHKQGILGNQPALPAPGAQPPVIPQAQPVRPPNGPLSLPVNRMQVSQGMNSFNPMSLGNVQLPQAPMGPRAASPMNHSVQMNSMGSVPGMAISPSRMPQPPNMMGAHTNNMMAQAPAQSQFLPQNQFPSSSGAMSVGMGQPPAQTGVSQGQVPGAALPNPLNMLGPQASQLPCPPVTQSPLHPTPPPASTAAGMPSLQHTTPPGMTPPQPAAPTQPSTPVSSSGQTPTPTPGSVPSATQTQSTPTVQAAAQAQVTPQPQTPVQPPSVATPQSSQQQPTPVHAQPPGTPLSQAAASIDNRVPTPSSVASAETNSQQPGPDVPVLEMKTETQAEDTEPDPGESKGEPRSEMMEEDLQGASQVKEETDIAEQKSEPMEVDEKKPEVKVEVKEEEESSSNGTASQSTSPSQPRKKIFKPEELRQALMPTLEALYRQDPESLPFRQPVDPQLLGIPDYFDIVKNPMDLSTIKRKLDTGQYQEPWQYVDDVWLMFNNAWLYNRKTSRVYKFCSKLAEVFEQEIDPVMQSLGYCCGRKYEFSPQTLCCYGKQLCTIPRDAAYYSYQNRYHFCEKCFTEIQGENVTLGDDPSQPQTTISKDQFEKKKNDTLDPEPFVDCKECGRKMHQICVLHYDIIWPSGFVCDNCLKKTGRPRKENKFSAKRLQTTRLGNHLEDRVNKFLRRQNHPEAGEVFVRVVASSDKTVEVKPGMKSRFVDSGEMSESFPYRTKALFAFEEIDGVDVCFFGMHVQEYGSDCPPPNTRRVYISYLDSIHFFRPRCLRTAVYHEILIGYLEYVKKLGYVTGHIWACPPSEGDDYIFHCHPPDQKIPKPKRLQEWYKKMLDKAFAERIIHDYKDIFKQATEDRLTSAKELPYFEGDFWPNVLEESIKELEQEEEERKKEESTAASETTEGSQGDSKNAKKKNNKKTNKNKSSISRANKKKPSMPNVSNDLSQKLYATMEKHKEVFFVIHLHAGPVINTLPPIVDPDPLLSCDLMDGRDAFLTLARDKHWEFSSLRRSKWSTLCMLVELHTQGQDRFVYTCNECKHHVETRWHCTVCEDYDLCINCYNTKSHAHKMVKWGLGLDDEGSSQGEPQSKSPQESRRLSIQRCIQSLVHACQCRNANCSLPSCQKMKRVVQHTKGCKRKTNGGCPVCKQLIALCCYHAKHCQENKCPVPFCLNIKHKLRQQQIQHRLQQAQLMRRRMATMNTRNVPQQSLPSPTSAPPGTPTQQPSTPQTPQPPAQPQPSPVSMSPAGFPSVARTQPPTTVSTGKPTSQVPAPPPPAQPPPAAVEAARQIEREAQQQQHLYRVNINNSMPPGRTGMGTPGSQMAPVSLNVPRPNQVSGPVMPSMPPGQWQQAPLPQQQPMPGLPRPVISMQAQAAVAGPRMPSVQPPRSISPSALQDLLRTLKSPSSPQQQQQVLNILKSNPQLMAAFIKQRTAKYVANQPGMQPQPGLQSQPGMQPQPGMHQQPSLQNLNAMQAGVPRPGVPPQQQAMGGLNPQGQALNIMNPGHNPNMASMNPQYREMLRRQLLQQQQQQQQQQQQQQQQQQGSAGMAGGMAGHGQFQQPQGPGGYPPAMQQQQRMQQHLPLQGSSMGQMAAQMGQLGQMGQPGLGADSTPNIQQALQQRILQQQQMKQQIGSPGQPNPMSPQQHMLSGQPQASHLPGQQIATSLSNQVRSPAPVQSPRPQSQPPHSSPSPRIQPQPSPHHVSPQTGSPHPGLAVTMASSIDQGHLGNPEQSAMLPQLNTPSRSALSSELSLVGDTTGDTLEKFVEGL
# [11] = target: Chromatin remodeling regulator CECR2 (Homo sapiens) (UniProt Q9BXF3); settings: dose 200.0 µM, time 30.0 min
# [12] = Half life in Sprague-Dawley rat at 25 mg/kg, po measured up to 24 hrs; type: ADME, organism-based; settings: in vivo
# [13] = target: Histone acetyltransferase p300 (Homo sapiens) (UniProt Q09472); settings: dose 200.0 µM, time 30.0 min
# [14] = Metabolic stability in human liver microsomes assessed as parent compound remaining at 1 uM incubated for 45 mins in presence of NADPH by LC-MS/MS analysis; type: ADME, Microsome; settings: read-out: Stability
# [15] = AUC (0 to infinity) in Sprague-Dawley rat at 25 mg/kg, po measured up to 24 hrs; type: ADME, organism-based; design: time < 24 hrs, dose 25 mg/kg, route po; settings: in vivo
# [16] = target: PH-interacting protein (Homo sapiens) (UniProt Q8WWQ0); settings: dose 200.0 µM, time 30.0 min
# in vitro = settings: rat, liver microsomes
# Description: Hepatic extraction ratio in rat liver microsomes at 1 uM incubated for 45 mins in presence of NADPH by LC-MS/MS analysis
# [17] = target: Bromodomain testis-specific protein (Homo sapiens, UniProt Q58F21); settings: dose 200.0 µM, time 30.0 min
# LNCaP C4-2B [18] = experiment: Antiproliferative activity against human LNCaP C4-2B cells assessed as inhibition of cell growth by Celltiter-Glo assay; type: functional, cell-based
# [19] = Apparent permeability across basolateral to apical side in human Caco-2 cells at 10 uM measured after 2 hrs by LC-MS/MS analysis; type: ADME, cell-based
# LNCaP [20] = experiment: Suppression of Androgen receptor target-gene expression in human LNCaP cells at 5 uM incubated for 48 hrs by SYBR green dye-based qRT-PCR analysis; type: functional, cell-based
# [21] = target: Bromodomain-containing protein 2 (Homo sapiens, UniProt P25440); experiment: Binding affinity to His6-tagged human BRD2 bromodomain-1 (77 to 194 residues) expressed in Escherichia coli BL21 (DE3) assessed as dissociation constant by ITC analysis
# [22] = target: Histone acetyltransferase KAT2B (Homo sapiens) (UniProt Q92831); settings: dose 200.0 µM, time 30.0 min
# [23] = target: Bromodomain-containing protein 4 (Homo sapiens, UniProt O60885); settings: dose 200.0 µM, time 30.0 min
smiles,measurement,setting,value
COc1ccn2c(C(C)=O)cc(C(=O)Nc3cc(C(C)O)cc(-c4cnn(C5CC5)c4)c3F)c2c1 (stereo not given),Kd,[1],1500 nM
same,inhibition in vivo at 40 mg/kg,CWR22R [2],78%
same,IC50,LNCaP [3],590 nM
same,AUC,[4],3715.71 ng·h/mL
same,Activity,LNCaP C4-2B [5],Active
same,ΔTm,[6],5 °C
same,ΔTm,[7],-0.5 °C
same,Activity,CWR22R [8],Active
same,bioavailability,[9],25.9%
same,ΔTm,[10],0 °C
same,IC50,CREB-binding protein,4.21 nM
same,ΔTm,[11],0 °C
same,half-life,[12],1.66 h
same,ΔTm,[13],12 °C
same,"remaining at 0.75 h, 1 µM",[14],23.1%
same,AUC(0-inf),[15],4820 ng·h/mL
same,ΔTm,[16],0 °C
same,"hepatic extraction ratio at 0.75 h, 1 µM",in vitro,0.495
same,ΔTm,[17],-3.3 °C
same,IC50,LNCaP C4-2B [18],6430 nM
same,"Papp B→A at 2 h, 10 µM",[19],11.8 ×10⁻⁶ cm/s
same,Activity,LNCaP [20],Active
same,Kd,[21],840 nM
same,ΔTm,[22],-0.6 °C
same,ΔTm,[23],-1.5 °C

# — ChEMBL document CHEMBL5154675, “Design, Synthesis, and Biological Evaluation of 1-(Indolizin-3-yl)ethan-1-ones as CBP Bromodomain Inhibitors for the Treatment of Prostate Cancer” (J Med Chem, 2022)
